Entries after “also recorded” stand apart in the source; their conditions may differ.
Columns and labels:
[1] = Stability test (XRPD, naked eye observation, HPLC) after storage under accelerated and severe conditions; format: physicochemical
Description: To investigate the stability of Crystalline Form A, after storage for 2 weeks under accelerated (40° C./75% RH) and severe (80° C.) conditions, the physical stability was confirmed by naked eye observation and XRD measurement (FIG. 7), and chemical stability was confirmed by the analysis of the sample purity using HPLC (Table 3). HPLC equipment and analysis methods are represented in Table 1.
A stability test was carried out in the same manner as in Example 2. • (5) Results

[2] = DVS (dynamic vapor sorption); format: physicochemical
Description: Moisture sorption/desorption data were collected on a DVS Intrinsic instrument (Surface Measurement Systems). Samples were not dried prior to analysis. Sorption and desorption data were collected over the range of 5% to 95% RH with 10% RH increments under nitrogen. The equilibrium criterion used in the analysis was less than 0.0100% change in weight in 5 minutes with a maximum equilibration time of 3 hours. Data on the initial moisture content of the samples were not corrected. The results are represented in FIG. 6.

[3] = severe condition (80° C.), 2 weeks

| time physically stable ([1]; 80° C.) | sample purity using HPLC ([1]; Accelerated condition (40° C./75% RH), 1 week) [%] | sample purity using HPLC ([1]; Accelerated condition (40° C./75% RH), 2 weeks) [%] | sample purity using HPLC ([1]; Accelerated condition (40° C./75% RH), 3 days) [%] | sample purity using HPLC ([1]; Initial) [%] | sample purity using HPLC ([1]; Severe condition (80° C.), 1 week) [%] | sample purity using HPLC ([1]; Severe condition (80° C.), 3 days) [%] | amount of impurities in the sample [1, 3] | sample purity using HPLC [1, 3] [%] | change in the crystal form in XRPD ([1]; 2 weeks, accelerated (40° C./75% RH) and severe (80° C.) conditions) | Compound | naked eye observation ([1]; after 2 weeks of severe condition (80° C.)) | physical/chemical stability ([1]; 2 weeks, accelerated (40° C./75% RH) and severe (sealed state, 80° C.) conditions) | XRPD pattern of the solid retrieved after DVS [2] |
| --- | --- | --- | --- | --- | --- | --- | --- | --- | --- | --- | --- | --- | --- |
| at least 2 weeks | 98.1 | 98.8 | 98.8 | 100.7 | 87.2 | 90.7 | increased | 77.3 | – | CC(C)n1nc(Cl)c2cc(COc3ccc4c(c3)CCC(CN3CCC(C(=O)O)CC3)=C4Cl)ccc21 [amorphous form, 1-[1-chloro-6-(3-chloro-1-isopropyl-1H-indazol-5-ylmethoxy)-3,4-dihydro-naphthalen-2-ylmethyl]-piperidine-4-carboxylic acid] | free-flowing particles that were broken when struck and bubble-like yellow masses | – | – |
| – | – | – | – | – | – | – | – | – | no change in the crystal form | CC(C)n1nc(Cl)c2cc(COc3ccc4c(c3)CCC(CN3CCC(C(=O)O)CC3)=C4Cl)ccc21 [Crystalline Form A, 1-[1-chloro-6-(3-chloro-1-isopropyl-1H-indazol-5-ylmethoxy)-3,4-dihydro-naphthalen-2-ylmethyl]-piperidine-4-carboxylic acid] | – | physically/chemically stable; also recorded: physical/chemical stability was confirmed | XRPD patterns similar to the initial ones |
